In patent US6485746B1, “Controlled-release sedative-hypnotic compositions and methods related thereto” (Neurocrine Biosciences, Inc., priority 2000, dated 2002):
In brackets after ≈: the same amount, converted by molar mass.

Assays:
[1] = Plasma pharmacokinetics of NBI-34060 (half-life, volume of distribution); format: in vivo, human
Description: The mean plasma half-life of a sedative-hypnotic compound may be determined using well known techniques. Terminal half-life may be determined using standard pharmacokinetic calculations, such as those presented by Rolland and Tozer (Clinical Pharmacokinetics Concepts and Applications, 3rd. Ed., Chap. 3, 1995). in addition, software is commercially available which performs this calculation, such as the product sold under the tradename “WinNinlin™”(Prof. Ver. 1.5). […] This is estimated by linear regression analysis of the time vs. log concentration of the test compound.
In this experiment, commercially available plasma profiling software (GastroPlus™) (Simulations Plus Inc., CA.) was used to simulate the effects of varying controlled release profiles and pharmacokinetic parameters based on in vivo plasma concentrations of NBI-34060 as measured in 12-healthy male human subjects. […] This assumed that the lower CL drug would distribute to the same tissues as the higher CL drug, so that all half-life changes were because of differences in metabolism and/or renal clearance rather than in volumes. Two oral plasma concentration-time files were created (NBI-Target-Hi.opd and NBI-Target-Lo.opd) with plasma concentration-time points serving as targets (shown as a square in FIGS. 2, 3, 4 and 5). The requirements for Tmax2 for the high target was set at 100% of Tmax1.

In the case of `CC(=O)N(C)c1cccc(-c2ccnc3c(C(=O)c4cccs4)cnn23)c1` [NBI-34060, N-methyl-N-(3-{3-[2-thienylcarbonyl]-pyrazolo-[1,5-a]-pyrimidin-7-yl}-phenyl)acetamide], the half-life ([1]; male, human, plasma half-life) is reported as ~1.3 h, the Vd ([1]; one-compartment pharmacokinetic model, based on in vivo plasma concentrations in 12 healthy male human subjects) is reported as 159 L and the “resulting pH” value (Solubility in water; pH of the solution in water at approximately 20-30 μg/ml) is reported as “approximately 8.0”. It also gave a solubility (Solubility in water; water, pH 8, water) of 20 to 30 µg/mL (≈ 53.1 to 79.7 µM).
